US10414763B2 (CANCER RESEARCH TECHNOLOGY LIMITED, priority 2014, dated 2019)

Target: T1, full-length human PKCι (Homo sapiens, UniProt P41743)
T1 construct: Recombinant, full-length human PKCι expressed in Sf21 insect cells is also commercially available; purchased EMD Millipore; host or cells: Sf21 insect cells (baculovirus)
T1 sequence (P41743 1-596): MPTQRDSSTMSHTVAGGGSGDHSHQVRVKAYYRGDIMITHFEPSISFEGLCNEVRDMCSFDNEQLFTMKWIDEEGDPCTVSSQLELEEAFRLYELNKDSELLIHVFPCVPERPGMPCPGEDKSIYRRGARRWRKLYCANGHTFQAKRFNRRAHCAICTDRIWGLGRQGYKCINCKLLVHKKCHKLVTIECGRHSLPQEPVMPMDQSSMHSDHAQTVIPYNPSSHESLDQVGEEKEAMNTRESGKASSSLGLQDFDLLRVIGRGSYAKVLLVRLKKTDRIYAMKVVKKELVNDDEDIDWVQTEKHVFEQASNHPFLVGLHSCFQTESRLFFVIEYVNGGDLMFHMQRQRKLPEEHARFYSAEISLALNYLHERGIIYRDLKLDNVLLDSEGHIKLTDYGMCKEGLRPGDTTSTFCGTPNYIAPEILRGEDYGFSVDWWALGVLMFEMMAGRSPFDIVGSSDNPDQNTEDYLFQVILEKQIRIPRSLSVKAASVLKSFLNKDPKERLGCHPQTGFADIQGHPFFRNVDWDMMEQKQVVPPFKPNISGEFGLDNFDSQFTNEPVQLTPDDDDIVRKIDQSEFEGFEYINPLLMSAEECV
Experiment: PKCι IC50 IMAP fluorescence polarisation assay, full-length enzyme, 150 μM ATP
Type: biochemical
Conditions: read-out: IC50 in IMAP assay against full length PKCi at 150 μM ATP
Procedure, shortened: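 IMAP fluorescence polarisation kinase assay: 15 pM baculovirus-expressed human PKCiota with 100 nM FAM-pseudosubstrate peptide and 150 μM ATP, 1 h at 25 °C. IMAP detection reagent then 2 h at 25 °C before FP measurement. Inhibition referenced to no-compound and no-enzyme controls for IC50 fitting.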

Structure (SMILES) | IC50 [nM]
COc1cncc2nc(-c3ccnc(Nc4nc(F)ccc4F)c3)nc(NC3CCNCC3(C)C)c12 (racemic) [Example 261, rac-2-[2-[(3,6-difluoro-2-pyridyl)amino]-4-pyridyl]-N-(3,3-dimethyl-4-piperidyl)-5-methoxy-pyrido[3,4-d]pyrimidin-4-amine] | < 100
CC(C)c1cc(C(C)C)c(S(=O)(=O)Oc2nc(-c3ccnc4[nH]c5ccccc5c34)nc3cncc(C4CCC4)c23)c(C(C)C)c1 [Example 204, 2,4,6-Triisopropyl-benzenesulfonic acid 5-cyclobutyl-2-(9H-pyrido[2,3-b]indol-4-yl)-pyrido[3,4-d]pyrimidin-4-yl ester] | < 100
c1ccc2c(c1)[nH]c1nccc(-c3nc(NCC4COCCN4)c4c(C5CCC5)cncc4n3)c12 (centres unmarked) [Example 251, [5-Cyclobutyl-2-(9H-pyrido[2,3-b]indol-4-yl)-pyrido[3,4-d]pyrimidin-4-yl]-morpholin-3-ylmethyl-amine] | 1000 to 10000
Cc1ccc(-c2cc3c(-c4nc(N5CCNCC5)c5c(C6CC6)cncc5n4)ccnc3[nH]2)s1 [Example 41, 5-Cyclopropyl-2-[2-(5-methyl-thiophen-2-yl)-1H-pyrrolo[2,3-b]pyridin-4-yl]-4-piperazin-1-yl-pyrido[3,4-d]pyrimidine] | < 100
FC(F)(F)c1cc2c(-c3nc(N4CC[C@H]5NCC[C@H]54)c4c(C5CCC5)cncc4n3)ccnc2[nH]1 (racemic) [Example 54, (±)-5-Cyclobutyl-4-(3,6-cis)-hexahydro-pyrrolo[3,2-b]pyrrol-1-yl-2-(2-trifluoromethyl-1H-pyrrolo[2,3-b]pyridin-4-yl)-pyrido[3,4-d]pyrimidine] | < 100
CN(c1nc(-c2ccnc3[nH]c4ccccc4c23)nc2cncc(C3CCC3)c12)C1CC2NC(=O)OC2C1 (centres unmarked) [Example 375, 5-{[5-Cyclobutyl-2-(9H-pyrido[2,3-b]indol-4-yl)-pyrido[3,4-d]pyrimidin-4-yl]-methyl-amino}-hexahydro-cyclopentoxazol-2-one] | 100 to 1000
Clc1ccccc1-c1cc2c(-c3nc(N4CC[C@@H]5CNCC[C@@H]54)c4c(C5CC5)cncc4n3)ccnc2[nH]1 (racemic) [Example 27, (±)-2-[2-(2-Chloro-phenyl)-1H-pyrrolo[2,3-b]pyridin-4-yl]-5-cyclopropyl-4-(3aR,7aS)-octahydro-pyrrolo[3,2-c]pyridin-1-yl-pyrido[3,4-d]pyrimidine] | < 100
CC1(C)CNCC[C@@H]1Nc1nc(-c2ccnc(Nc3cncc(F)c3)c2)nc2cncc(C3CC3)c12 [Example 265, 5-cyelopropyl-N-[(4S)-3,3-dimethyl-4-piperidyl]-2-[2-[(5-fluoro-3-pyridyl)amino]-4-pyridyl]pyrido[3,4-d]pyrimidin-4-amine] | 100 to 1000
Cc1cc2c(-c3nc(N4CCOC5CNCC54)c4c(C5CCC5)cncc4n3)ccnc2[nH]1 (centres unmarked) [Example 257, 5-Cyclobutyl-4-(hexahydro-pyrrolo[3,4-b]-1,4-oxazin-4-yl)-2-(2-methyl-1H-pyrrolo[2,3-b]pyridin-4-yl)-pyrido[3,4-d]pyrimidine] | < 100
CN(c1nc(-c2ccnc3[nH]c(-c4ncccc4F)cc23)nc2cncc(C3CC3)c12)[C@H]1CCNCC1(C)C [Example 384, {5-Cyclopropyl-2-[2-(3-fluoro-pyridin-2-yl)-1H-pyrrolo[2,3-b]pyridin-4-yl]-pyrido[3,4-d]pyrimidin-4-yl}-((S)-3,3-dimethyl-piperidin-4-yl)-methyl-amine] | < 100
C[C@@]1(O)CNCC[C@H]1Nc1nc(-c2ccnc3[nH]c4ccccc4c23)nc2cncc(C3CCC3)c12 (racemic) [Example 246] | < 100
Fc1cccnc1-c1cc2c(-c3nc(N4CCOC5CNCC54)c4c(C5CCC5)cncc4n3)ccnc2[nH]1 (centres unmarked) [Example 259, 5-Cyclobutyl-2-[2-(3-fluoro-pyridin-2-yl)-1H-pyrrolo[2,3-b]pyridin-4-yl]-4-(hexahydro-pyrrolo[3,4-b]-1,4-oxazin-4-yl)-pyrido[3,4-d]pyrimidine] | < 100
CC1(c2cc3c(-c4nc(N[C@H]5CC[C@H](N)CC5)c5c(C6CC6)cncc5n4)ccnc3[nH]2)CC1(F)F (stereo partly drawn) [Example 12, trans-N-{5-Cyclopropyl-2-[2-(2,2 difluoro-1-methyl-cyclopropyl)-1H-pyrrolo[2,3-b]pyridin-4-yl]-pyrido[3,4-d]pyrimidin-4-yl}-cyclohexane-1,4-diamine] | < 100
CN(c1nc(-c2ccnc(Nc3ncn(-c4ccccc4)n3)c2)nc2cncc(C3CC3)c12)C1CCNCC1(C)C (racemic) [Example 234, rac-{5-Cyclopropyl-2-[2-(1-phenyl-1H-1,2,4-triazol-3-ylamino)-pyridin-4-yl]-pyrido[3,4-d]pyrimidin-4-yl}-(3,3-dimethyl-piperidin-4-yl)-methyl-amine] | < 100
Fc1ccc(F)c(Nc2cc(-c3nc(N4CCOC5CNCC54)c4c(C5CCC5)cncc4n3)ccn2)n1 (centres unmarked) [Example 256, {4-[5-Cyclobutyl-4-(hexahydro-pyrrolo[3,4-b]-1,4-oxazin-4-yl)-pyrido[3,4-d]pyrimidin-2-yl]-pyridin-2-yl}-(3,6-difluoro-pyridin-2-yl)-amine] | < 100
Cc1nc(Nc2cc(-c3nc(N[C@H]4CCNCC4(C)C)c4c(C5CCC5)cncc4n3)ccn2)ccc1C#N [Example 272] | < 100
CC1(C)CNCCC1Nc1nc(-c2ccnc(Nc3ncn(-c4ccccc4)n3)c2)nc2cncc(C3CC3)c12 (racemic) [Example 233, rac-{5-Cyclopropyl-2-[2-(1-phenyl-1H-1,2,4-triazol-3-ylamino)-pyridin-4-yl]-pyrido[3,4-d]pyrimidin-4-yl}-(3,3-dimethyl-piperidin-4-yl)-amine] | < 100

Continued, values first:

IC50 [nM] | Structure (SMILES)
< 100 | C[C@H]1CNCC[C@H]1Nc1nc(-c2ccnc(Nc3nc(F)ccc3F)c2)nc2cncc(C3CCC3)c12 (single isomer, unassigned) [Example 298, {5-Cyclobutyl-2-[2-(3,6-difluoro-pyridin-2-ylamino)-pyridin-4-yl]-pyrido[3,4-d]pyrimidin-4-yl}-((3S,4R)-3-methyl-piperidin-4-yl)-amine or enantiomer]
< 100 | O[C@@H]1CNCC[C@H]1Nc1nc(-c2ccnc(Nc3ncccc3F)c2)nc2cncc(C3CCC3)c12 (racemic) [Example 286, rac-(3R,4R)-4-{5-Cyclobutyl-2-[2-(3-fluoro-pyridin-2-ylamino)-pyridin-4-yl]-pyrido[3,4-d]pyrimidin-4-ylamino}-piperidin-3-ol]
100 to 1000 | CC1(C)CNCC[C@@H]1Nc1nc(-c2ccnc(Nc3ncccc3Cl)c2)nc2cncc(C3CC3)c12 [Example 339, 2-[2-[(3-Chloro-2-pyridyl)amino]-4-pyridyl]-5-cyclopropyl-N-[(4S)-3,3-dimethyl-4-piperidyl]pyrido[3,4-d]pyrimidin-4-amine]
< 100 | C[C@@H]1CNCC[C@H]1Nc1nc(-c2ccnc(Nc3ncccc3F)c2)nc2cncc(C3CCC3)c12 (single isomer, unassigned) [Example 341, 5-Cyclobutyl-2-[2-[(3-fluoro-2-pyridyl)amino]-4-pyridyl]-N-[(3R,4R)-3-methyl-4-piperidyl]pyrido[3,4-d]pyrimidin-4-amine or enantiomer]
< 100 | O[C@@]12CCN(c3nc(-c4ccnc5[nH]c(-c6cc(F)ccc6Cl)cc45)nc4cncc(C5CC5)c34)[C@@H]1CCNC2 (racemic) [Example 358, rac(1R,3aS)-1-{2-[2-(2-Chloro-5-fluoro-phenyl)-1H-pyrrolo[2,3-b]pyridin-4-yl]-5-cyclopropyl-pyrido[3,4-d]pyrimidin-4-yl}-octahydro-pyrrolo[3,2-c]pyridin-3a-ol]
100 to 1000 | CC1(C)CNCC[C@@H]1Nc1nc(-c2cccc(Nc3ccccn3)c2)nc2cncc(C3CCC3)c12 [Example 321, {5-Cyclobutyl-2-[3-(pyridin-2-ylamino)-phenyl]-pyrido[3,4-d]pyrimidin-4-yl}-((S)-3,3-dimethyl-piperidin-4-yl)-amine]
< 100 | CC1(C)CNCC[C@@H]1Nc1nc(-c2ccnc(Nc3ncc(Cl)cc3F)c2)nc2cncc(C3CCC3)c12 [Example 316, {2-[2-(5-Chloro-3-fluoro-pyridin-2-ylamino)-pyridin-4-yl]-5-cyclobutyl-pyrido[3,4-d]pyrimidin-4-yl}-((S)-3,3-dimethyl-piperidin-4-yl)-amine]
< 100 | O[C@@H]1CNCC[C@H]1Nc1nc(-c2ccnc(Nc3nc(F)cc(F)c3F)c2)nc2cncc(C3CC3)c12 (racemic) [Example 310, rac-(3R,4R)-4-{5-Cyclopropyl-2-[2-(3,4,6-trifluoro-pyridin-2-ylamino)-pyridin-4-yl]-pyrido[3,4-d]pyrimidin-4-ylamino}-piperidin-3-ol]
< 100 | c1cncc(-c2cc3c(-c4nc(N[C@H]5CCCNCC5)c5c(C6CC6)cncc5n4)ccnc3[nH]2)c1 [Example 369, (S)-Azepan-4-yl-[5-cyclopropyl-2-(2-pyridin-3-yl-1H-pyrrolo[2,3-b]pyridin-4-yl)-pyrido[3,4-d]pyrimidin-4-yl]-amine]
